The test system of the data set is CCRIS mutagenicity, Ames/micronucleus/aberration tests. Description: CCRIS mutagenicity studies.
The mark [1] stands for this setting: Test System: AMES SALMONELLA TYPHIMURIUM, Strain/Indicator: TA98, Metabolic Activation: NONE, Method: PREINCUBATION
Setting [2] is: Test System: AMES SALMONELLA TYPHIMURIUM, Strain/Indicator: TA100, Metabolic Activation: NONE, Method: PREINCUBATION
The mark [3] stands for this setting: Test System: AMES SALMONELLA TYPHIMURIUM, Strain/Indicator: TA1535, Metabolic Activation: NONE, Method: PREINCUBATION
The mark [4] stands for this setting: Test System: AMES SALMONELLA TYPHIMURIUM, Strain/Indicator: TA100, Metabolic Activation: NONE, Method: STANDARD PLATE.
Where [5] appears, read: Test System: AMES SALMONELLA TYPHIMURIUM, Strain/Indicator: TA98, Metabolic Activation: NONE, Method: STANDARD PLATE.
The mark [6] stands for this setting: Test System: AMES SALMONELLA TYPHIMURIUM, Strain/Indicator: TA1535, Metabolic Activation: NONE, Method: STANDARD PLATE.

The source made the active and inactive calls. The rule behind the calls is not given here.

Consider `C=CC(=O)OCCOCCOCCOCCOC(=O)C=C`, for which the mutagenic call reads like this: (Test System: AMES SALMONELLA TYPHIMURIUM, Strain/Indicator: TA98, Metabolic Activation: HAMSTER, LIVER, S-9, AROCLOR 1254 (10%), Method: PREINCUBATION) “inactive; negative”; under setting [1], “inactive; negative”; (Test System: AMES SALMONELLA TYPHIMURIUM, Strain/Indicator: TA98, Metabolic Activation: RAT, LIVER, S-9, AROCLOR 1254 (10%), Method: PREINCUBATION) “inactive; negative”; (Test System: AMES SALMONELLA TYPHIMURIUM, Strain/Indicator: TA100, Metabolic Activation: HAMSTER, LIVER, S-9, AROCLOR 1254 (10%), Method: PREINCUBATION) “inactive; negative”; under setting [2], “inactive; negative”; (Test System: AMES SALMONELLA TYPHIMURIUM, Strain/Indicator: TA100, Metabolic Activation: RAT, LIVER, S-9, AROCLOR 1254 (10%), Method: PREINCUBATION) “inactive; negative”. Moreover, the mutagenic call is “inactive; negative” (Test System: AMES SALMONELLA TYPHIMURIUM, Strain/Indicator: TA1535, Metabolic Activation: HAMSTER, LIVER, S-9, AROCLOR 1254 (10%), Method: PREINCUBATION); “inactive; negative” under setting [3]; “inactive; negative” (Test System: AMES SALMONELLA TYPHIMURIUM, Strain/Indicator: TA1535, Metabolic Activation: RAT, LIVER, S-9, AROCLOR 1254 (10%), Method: PREINCUBATION); “inactive; negative” (Test System: AMES SALMONELLA TYPHIMURIUM, Strain/Indicator: TA1537, Metabolic Activation: HAMSTER, LIVER, S-9, AROCLOR 1254 (10%), Method: PREINCUBATION); “inactive; negative” (Test System: AMES SALMONELLA TYPHIMURIUM, Strain/Indicator: TA1537, Metabolic Activation: NONE, Method: PREINCUBATION); “inactive; negative” (Test System: AMES SALMONELLA TYPHIMURIUM, Strain/Indicator: TA1537, Metabolic Activation: RAT, LIVER, S-9, AROCLOR 1254 (10%), Method: PREINCUBATION). Further, the mutagenic call (Test System: CHINESE HAMSTER OVARY, Strain/Indicator: CHO-K1-BH4 (HGPRT)/6-THIOGUANINE, Metabolic Activation: NONE, Method: SUSPENSION/PLATE) was “active; positive”; the mutagenic call (Test System: CHINESE HAMSTER OVARY, Strain/Indicator: CHO-K1-BH4 (HGPRT), Metabolic Activation: NONE, Method: MONOLAYER) was “active; positive”; the mutagenic call (Test System: CHINESE HAMSTER OVARY, Strain/Indicator: CHO-K1-BH4 (HGPRT), Metabolic Activation: NONE, Method: SUSPENSION/PLATE) is “active; positive”; the mutagenic call (Test System: MOUSE LYMPHOMA, Strain/Indicator: L5178Y (TK+/TK-), Metabolic Activation: NONE, Method: SUSPENSION/PLATE) is “active; positive”.
For `CCOC(=O)CNC(=O)CBr`, the mutagenic call was “inactive; negative” (Test System: AMES SALMONELLA TYPHIMURIUM, Strain/Indicator: TA100, Metabolic Activation: MOUSE, LIVER, S-9, AROCLOR 1254, Method: STANDARD PLATE) and “inactive; negative” under setting [4].
For `CC1=C(C(=O)OC(C)C)C(c2cccc([N+](=O)[O-])c2)C(C(=O)OC2CN(C(c3ccccc3)c3ccccc3)C2)=C(N)N1` (stereo unspecified), the mutagenic call by setting is: under setting [5], “inactive; negative”; (Test System: AMES SALMONELLA TYPHIMURIUM, Strain/Indicator: TA98, Metabolic Activation: RAT LIVER S-9, Method: STANDARD PLATE) “inactive; negative”; under setting [4], “inactive; negative”; (Test System: AMES SALMONELLA TYPHIMURIUM, Strain/Indicator: TA100, Metabolic Activation: RAT LIVER S-9, Method: STANDARD PLATE) “inactive; negative”; under setting [6], “inactive; negative”; (Test System: AMES SALMONELLA TYPHIMURIUM, Strain/Indicator: TA1535, Metabolic Activation: RAT LIVER S-9, Method: STANDARD PLATE) “inactive; negative”. The mutagenic call was “inactive; negative” (Test System: AMES SALMONELLA TYPHIMURIUM, Strain/Indicator: TA1537, Metabolic Activation: NONE, Method: STANDARD PLATE); “inactive; negative” (Test System: AMES SALMONELLA TYPHIMURIUM, Strain/Indicator: TA1537, Metabolic Activation: RAT LIVER S-9, Method: STANDARD PLATE); “inactive; negative” (Test System: E.COLI, Strain/Indicator: WP2 UVRA, Metabolic Activation: NONE, Method: STANDARD PLATE); “inactive; negative” (Test System: E.COLI, Strain/Indicator: WP2 UVRA, Metabolic Activation: RAT LIVER S-9, Method: STANDARD PLATE).
On to `Cc1ccc(CC2CO2)cc1` (stereo unspecified), for which the mutagenic call runs as follows: under setting [2], “active; positive”; under setting [4], “active; positive”; under setting [3], “active; positive”; under setting [6], “active; positive”.
As for `Nc1cc([N+](=O)[O-])cc([N+](=O)[O-])c1`, the mutagenic call is “active; positive” under setting [1]; “active; positive” under setting [5]; “active; positive” (Test System: AMES SALMONELLA TYPHIMURIUM, Strain/Indicator: TA98, Metabolic Activation: RAT, LIVER, S-9, AROCLOR 1254, Method: STANDARD PLATE); “active; positive” (Test System: AMES SALMONELLA TYPHIMURIUM, Strain/Indicator: TA98, Metabolic Activation: RAT, LIVER, S-9, KANECHLOR 500, Method: PREINCUBATION); “active; positive” under setting [2]; “active; positive” under setting [4]. In addition, the mutagenic call runs as follows: (Test System: AMES SALMONELLA TYPHIMURIUM, Strain/Indicator: TA100, Metabolic Activation: RAT, LIVER, S-9, AROCLOR 1254, Method: STANDARD PLATE) “active; positive”; (Test System: AMES SALMONELLA TYPHIMURIUM, Strain/Indicator: TA100, Metabolic Activation: RAT, LIVER, S-9, KANECHLOR 500, Method: PREINCUBATION) “active; positive”.
Turning to `Nc1nc(Cl)c2[nH]cnc2n1`, the mutagenic call under setting [4] was “active; positive”.

Values taken from PubChem BioAssay AID1259407 (Chemical Carcinogenesis Research Information System (CCRIS), 2018).
